Reference: patent US20250092058A1 (priority 2018, published 2025)

Legend:
PANC1 and Mia2 cells = test: Western blots of caspase-3 activation and PARP cleavage; format: cell-based, human; settings: 24 h, 10-500 nM
Protocol: Western blotting/Immunoblotting. […] Fifty μg total protein from each sample were heated at 95° C. for 5 minutes after mixing with equal volume of 2×SDS loading buffer. Samples were separated on 12-15% SDS-polyacrylamide gel electrophoresis (SDS-PAGE) gels and electrotransferred to Pure Nitrocellulose Membranes (Bio-Rad, Hercules, CA). […] Next, the membrane was incubated with different primary antibodies in TBS-T containing 5% BSA overnight at 4° C. in the range of dilutions from 1:500 to 1:2000. After washing with TBS-T, the membrane was incubated in TBS-T buffer containing 5% skim milk and corresponding secondary antibody (1:5000) for 45-60 minutes at room temperature with shaking. Protein of interest was detected using Western Lightning Plus—ECL (Perkin Elmer, Waltham, MA) and visualized by various times (3-120 seconds) of exposure. Actin was detected as the internal control to normalize total protein loading for each sample.
Next, we determined whether FL118-mediated inhibition of antiapoptotic proteins and induction of pro-apoptotic proteins shown in FIG. 1 would be accompanied by induction of apoptosis and cell killing.

PDX10978 = test: Pancreatic cancer PDX10978 in SCID mice; format: in vivo
Protocol: (§1) Human pancreatic cancer patient-derived xenograft (PDX) tumor mouse model and treatment. Experiments followed the IACUC-approved mouse protocol. Briefly, human PDAC PDX tumors maintained on SCID mice were isolated, and a piece of non-necrotic tumor tissues (30-40 mg) were subcutaneously transplanted into the flank area of female SCID mice. […] In this study, we used the timesaving intraperitoneal (ip) route for drug administration. […] The formulation process was described in detail in our previous patent (PCT/US2011/058558). […] Tumor length (L) and width (W) were measured using digital vernier calipers 1-3 times per week until the end of experimental studies. The tumor volume (v) was calculated using the formula: v=0.5 (L×W^2). Then the tumor size was divided by the day 0 tumor size as percentage tumor size versus day 0. The mean tumor volume ± standard deviation (SD) at each time point was derived from 5 mice in each group. The tumor curves were made using Sigma Plot software.
(§2) It has been recently documented that pancreatic cancer PDXs retain active paracrine/Hedgehog signaling, and desmoplasia is active in PDX tumor mouse models.

ERCC6, γ-H2AX = test: Western blots of DNA damage/repair proteins in PANC1; format: cell-based, human
Protocol: Western blotting/Immunoblotting. […] Fifty μg total protein from each sample were heated at 95° C. for 5 minutes after mixing with equal volume of 2×SDS loading buffer. Samples were separated on 12-15% SDS-polyacrylamide gel electrophoresis (SDS-PAGE) gels and electrotransferred to Pure Nitrocellulose Membranes (Bio-Rad, Hercules, CA). The membrane was then blocked in 5% skim milk in TBS-T buffer (20 mM Tris/HCl pH 7.5, 0.137 M NaCl, and 0.1% Tween 20) at room temperature for 2-3 hours. Next, the membrane was incubated with different primary antibodies in TBS-T containing 5% BSA overnight at 4° C. in the range of dilutions from 1:500 to 1:2000. After washing with TBS-T, the membrane was incubated in TBS-T buffer containing 5% skim milk and corresponding secondary antibody (1:5000) for 45-60 minutes at room temperature with shaking. Protein of interest was detected using Western Lightning Plus—ECL (Perkin Elmer, Waltham, MA) and visualized by various times (3-120 seconds) of exposure. Actin was detected as the internal control to normalize total protein loading for each sample.

PDX14244 = test: Pancreatic cancer PDX14244 in SCID mice; format: in vivo; settings: 5 mg/kg ip qw×4
Protocol: as §1, §2

[1] = tested on: CD44 stem cell marker-positive PANC1 cells; test: CD44-positive PANC1 colony formation; format: cell-based, human
Protocol: CD44 positive cell sorting and CD44-positive cell colony formation. CD44 positive (CD44+) cells were purified (sorted out) using fluorescence activated cell sorting (FACS). FITC-conjugated mouse anti-human CD44 was used in FACS purification of CD44+ PANC1 cells. Briefly, PANC1 cells were harvested by using 0.25% trypsin/0.02% EDTA. After re-suspension of the cells in cell-culture media, the cells were counted and washed in PBS with 2% FBS and collected by centrifugation. Add 10 μL FITC-CD44 antibody to 1 ml PBS containing 1 million cells and 2% of FBS for 30 minutes on ice. Following the antibody labeling, PANC1 cells were washed in PBS with 2% BSA before flow cytometric analysis was carried out on a BD FACSAria™ III cell sorter (BD Science, USA). […] Colonies were fixed, stained with crystal violet solution and images were taken before counting colonies on day 12. The experimental results were expressed as the mean±SD. The statistical significance of differences was determined by Student's t-test between two groups.
To further confirm these findings, we alternatively used the typical matrigel-based CSC sphere formation assay which is know to more closely mimic in vivo situations. In this assay only drug resistant stem-like cancer cells are able to form spheres. […] We performed colony formation of CD44 stem cell marker-positive cells using the stem-cell culture condition. […]

HepG2 = format: cell-based, human; settings: Table 13; MTT; HepG2 liver cancer
ABCG2 and Pgp = test: Efflux transporter substrate studies; format: in vitro ADME
[2] = Stability of FL118 formulated suspension; settings: no observable change in antitumor efficacy vs freshly prepared
[3] = calculated from SCID mouse MTD
FL118 MTD in SCID mice = format: in vivo
HCT116 = format: cell-based, human; settings: Table 13; MTT; HCT116 colorectal cancer
HeLa = format: cell-based, human; settings: Table 13; MTT; HeLa cervical cancer
[4] = BALB/cj mice, FL118 MTD 10 mg/kg oral qw×4
[5] = BALB/cj mouse serum, FL118 MTD 10 mg/kg oral qw×4

## CC[C@@]1(O)C(=O)OCc2c1cc1n(c2=O)Cc2cc3cc4c(cc3nc2-1)OCO4 [FL118, 10,11-methylenedioxy-camptothecin]
PANC1 and Mia2 cells
  caspase-3 activation and PARP cleavage: strongly induces caspase-3 activation and PARP cleavage
PDX10978; 5 mg/kg ip qw×4
  antitumor efficacy: only able to delay PDX10978 tumor growth
PDX10978; FL118 0.75 mg/kg or gemcitabine 60 mg/kg ip qw×4
  antitumor efficacy, single agent: only delayed tumor growth
ERCC6, γ-H2AX
  expression of ERCC6 and γ-H2AX: strongly decreased the expression of ERCC6 and induced γ-H2AX
PDX14244
  antitumor efficacy: able to eliminate these PDX tumors after one cycle of treatment
[1]; 1 nM
  colony formation: significantly inhibited colony formation
[1]; 10 and 100 nM
  colony formation: completely eliminate colony formation
HepG2
  IC50: 0.0685 ± 0.0067 µM
ABCG2 and Pgp
  substrate of ABCG2 and Pgp: not a substrate of ABCG2 and Pgp
10 mg/kg oral qw×4
  tolerability: well tolerated
[4]
  BASO: 0 K/μL
  EOS: 0.01-0.1 K/μL
  HCT: 26.1-30.9%
  HGB: 8.9 to 10.8 g/dL
  LYM: 0.06-0.17 K/μL
  MCH: 14.8 to 15.3 pg
  MCHC: 33.7 to 36 g/dL
  MCV: 41.9 to 43.9 fL
  MONO: 0.03-0.12 K/μL
  MPV: 8.1 to 8.6 fL
  NEUT: 0.03-0.5 K/μL
  PDW: 13.8 to 14.4 fL
  PLT: 487-1004 K/μL
  RBC: 6.01-7.04 M/μL
  RDW-SD: 23 to 24.8 fL
  RET: 0.67-4.49 K/μL
  WBC: 0.33-0.6 K/μL
[5]
  ALB: 1.7 to 2.2 g/dL
  ALP: 52-105 U/L
  ALT: 33-58 U/L
  BUN: 16 to 19 mg/dL
  CHOL: 91 to 109 mg/dL
  CREA: ≤0.1 mg/dL
  Ca: 8.1 to 9.4 mg/dL
  GLU: 87 to 185 mg/dL
  PHOS: 10 to 13.3 mg/dL
  TBIL: ≤0.1 to 0.3 mg/dL
  TP: 3.4 to 4.1 g/dL
≥12.5 mg/kg oral qw×4
  body weight loss: > 20%
[2]
  stability of formulated suspension for oral administration: more than 12 months
[3]
  calculated FL118 MTD for dogs: 2 mg/kg
FL118 MTD in SCID mice; oral formulation, tumor-bearing SCID mice, qw×4
  maximum tolerated dose (MTD): 10 mg/kg
FL118 MTD in SCID mice; oral, q1d×5 and q2d×5
  MTD: ~1.5 mg/kg
FL118 MTD in SCID mice; two doses in SCID mice, estimated
  MTD: 12 mg/kg/dose
HCT116
  IC50: 0.0665 ± 0.0112 µM
HeLa
  IC50: 0.0347 ± 0.0099 µM
